The assay concerns amyloid plaques in mice brains. The assay can be described thus: MicroPET images of transgenic mice. The assay is classed as in vivo. The settings on record: Tg2576 mice; dynamic microPET, total acquisition time 55-77 min. The protocol: All the animal experiments were performed according to the established animal protocol. The transgenic mice (Tg2576) were anaesthetised via intravenous injection with a 40 uL solution of ketamine and xylazine (4:1) before the injection of the tracer radiolabelled with ^18F: 5-[^18F]-fluoro-8-hydroxy-7-iodoquinoline. The mice were placed in supine position and scanned using microPET. A dynamic microPET study was performed using 15 planes and 15 to 16 frames (dynamic sequence: 6×30 s, 4×1 min, 2×5 min, 2×10 min, and 1-2×20 min) for a total acquisition time of 55-77 min. Images were reconstructed using the appropriate algorithms (Filter-back projection algorithm) and a cut-off frequency of 0.5. Images were reconstructed by means of a filtered iteration resulting in an image resolution of 1.8 mm and a volumetric resolution of about 6 mm^3. Transverse planes were reoriented to obtain the coronal and axial sections of the mice brains. Regional uptake is expressed in activity per gram of tissue.

From patent publication US20080063599A1, “Compounds Which Can Be Used To Diagnose And Monitor Diseases Associated With The Formation Of Amyloid Protein Fibrils” (priority 2002, published 2008) come the findings set out here.

Structures are written as SMILES.

As to `Oc1c(I)cc([18F])c2cccnc12` [5-[^18F]-fluoro-8-hydroxy-7-iodoquinoline], the “detection of amyloid plaques in microPET images” value is “adequate detection of the amyloid plaques”.
